Test results: the NIST ThermoML archive (doi:10.1016/j.jct.2015.02.011)

Assay: xn = mol fraction of the nth substance listed
Conditions: 100.7 kPa, Liquid; for speed of sound: Frequency=3 MHz, Sing-around technique in a fixed-path interferometer; for mass density: Vibrating tube method

CCCCCCCC[n+]1ccn(C)c1.F[P-](F)(F)(F)(F)F [1-octyl-3-methylimidazolium hexafluorophosphate] + C1CCOC1
Conditions | mass density [kg/m3] | speed of sound [m/s]
293.15 K, x1 = 0.0767 | 972.545 | 1319.1
293.15 K, x1 = 0.1791 | 1048.06 | 1338.4
293.15 K, x1 = 0.2783 | 1097.51 | 1356
293.15 K, x1 = 0.3996 | 1139.52 | 1371.5
293.15 K, x1 = 0.5198 | 1169.49 | 1384.1
293.15 K, x1 = 0.612 | 1187.49 | 1392.2
293.15 K, x1 = 0.6957 | 1201.25 | 1399
293.15 K, x1 = 0.7754 | 1212.53 | 1405.2
293.15 K, x1 = 0.8991 | 1227.92 | 1414
293.15 K, x1 = 1 | 1238.77 | 1421.2
298.15 K, x1 = 0.0767 | 967.476 | 1297.5
298.15 K, x1 = 0.1791 | 1043.39 | 1320.2
298.15 K, x1 = 0.2783 | 1092.94 | 1339.2
298.15 K, x1 = 0.3996 | 1135.15 | 1355.5
298.15 K, x1 = 0.5198 | 1165.32 | 1368.6
298.15 K, x1 = 0.612 | 1183.35 | 1376.8
298.15 K, x1 = 0.6957 | 1197.12 | 1383.9
298.15 K, x1 = 0.7754 | 1208.52 | 1390.5
298.15 K, x1 = 0.8991 | 1223.83 | 1399.8
298.15 K, x1 = 1 | 1234.79 | 1406.5
303.15 K, x1 = 0.0767 | 962.388 | 1276.5
303.15 K, x1 = 0.1791 | 1038.59 | 1302.6
303.15 K, x1 = 0.2783 | 1088.35 | 1322.5
303.15 K, x1 = 0.3996 | 1130.86 | 1340.1
303.15 K, x1 = 0.5198 | 1161.03 | 1353.2
303.15 K, x1 = 0.612 | 1179.13 | 1361.9
303.15 K, x1 = 0.6957 | 1193.04 | 1369.2
303.15 K, x1 = 0.7754 | 1204.52 | 1376.1
303.15 K, x1 = 0.8991 | 1219.78 | 1385.8
303.15 K, x1 = 1 | 1230.84 | 1392.4
308.15 K, x1 = 0.0767 | 957.488 | 1254.8
308.15 K, x1 = 0.1791 | 1033.77 | 1283.4
308.15 K, x1 = 0.2783 | 1083.82 | 1304.2
308.15 K, x1 = 0.3996 | 1126.53 | 1323.2
308.15 K, x1 = 0.5198 | 1157 | 1338.3
308.15 K, x1 = 0.612 | 1175.28 | 1347.8
308.15 K, x1 = 0.6957 | 1189.11 | 1355.3
308.15 K, x1 = 0.7754 | 1200.62 | 1362.2
308.15 K, x1 = 0.8991 | 1216.13 | 1371.3
308.15 K, x1 = 1 | 1227.09 | 1379
313.15 K, x1 = 0.0767 | 952.422 | 1231.1
313.15 K, x1 = 0.1791 | 1028.9 | 1263.7
313.15 K, x1 = 0.2783 | 1079.26 | 1286.5
313.15 K, x1 = 0.3996 | 1122.17 | 1309.5
313.15 K, x1 = 0.5198 | 1152.84 | 1324.6
313.15 K, x1 = 0.612 | 1171.22 | 1334
313.15 K, x1 = 0.6957 | 1185.14 | 1341.6
313.15 K, x1 = 0.7754 | 1196.65 | 1348.4
313.15 K, x1 = 0.8991 | 1212.37 | 1357.6
313.15 K, x1 = 1 | 1223.3 | 1365.8
318.15 K, x1 = 0.0767 | 947.162 | 1209
318.15 K, x1 = 0.1791 | 1024.04 | 1242.4
318.15 K, x1 = 0.2783 | 1074.69 | 1268.7
318.15 K, x1 = 0.3996 | 1117.75 | 1292.1
318.15 K, x1 = 0.5198 | 1148.57 | 1309.3
318.15 K, x1 = 0.612 | 1167.05 | 1319.7
318.15 K, x1 = 0.6957 | 1181.01 | 1327
318.15 K, x1 = 0.7754 | 1192.68 | 1333.4
318.15 K, x1 = 0.8991 | 1208.44 | 1342.7
318.15 K, x1 = 1 | 1219.5 | 1351.2
323.15 K, x1 = 0.0767 | 941.999 | 1185.7
323.15 K, x1 = 0.1791 | 1019.03 | 1222.6
323.15 K, x1 = 0.2783 | 1069.89 | 1250.7
323.15 K, x1 = 0.3996 | 1113.1 | 1276.2
323.15 K, x1 = 0.5198 | 1144.07 | 1294.4
323.15 K, x1 = 0.612 | 1162.61 | 1305.3
323.15 K, x1 = 0.6957 | 1176.74 | 1313
323.15 K, x1 = 0.7754 | 1188.63 | 1319.2
323.15 K, x1 = 0.8991 | 1204.28 | 1329.8
323.15 K, x1 = 1 | 1215.42 | 1338
